This passage reports GI50 and TGI results from PubChem BioAssay (NCI).

Each structure is given as a SMILES string. Where “and” joins values, the source holds several entries; their conditions need not be identical. Equal values may be shown once.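 Dose response: 5 concentrations. Exposure: 48 h. Format: 96-well plates. Endpoint: linear interpolation; highest concentration if not reached. GI50 marks 50% less growth. TGI denotes the concentration required for complete inhibition of growth.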

Among the test systems are ACHN renal; LOX IMVI melanoma; MDA-MB-231 breast; NCI-H226 lung; NCI-H460 lung; RXF 393 renal; U251 CNS; UO-31 renal; LXFL 529 NSCLC.
Common to all, as to test: growth of human tumour cells (NCI), 48 h

As to `Cc1ccc(-c2nc3cc(Cl)c(Cl)cc3nc2C#N)cc1`, the GI50 in the assay with ACHN renal is 39 µM; with LOX IMVI melanoma, greater than 100 µM; in the assay with MDA-MB-231 breast it was greater than 100 µM; with NCI-H226 lung, greater than 100 µM; with NCI-H460 lung it was greater than 100 µM; in the assay on RXF 393 renal it was greater than 100 µM. Further, the GI50 in the assay on U251 CNS and in the assay on UO-31 renal was greater than 100 µM each time. Also, the TGI in the assay on ACHN renal, in the assay on LOX IMVI melanoma, with MDA-MB-231 breast, with NCI-H226 lung, with NCI-H460 lung and with RXF 393 renal was greater than 100 µM each time. In addition, the TGI in the assay on U251 CNS and in the assay with UO-31 renal was greater than 100 µM in each case.
Regarding `CCCCCCCCCC(CCCC(O)CC(=O)O)OC1OC(COC2OC(C)C(OC(C)=O)C(O)C2O)C(O)C(O)C1OC1OC(CO)C(O)C(O)C1OC1OC(C)C(OC(=O)CC(C)C)C(O)C1O` (stereo not drawn), the GI50 in the assay with ACHN renal, in the assay on LOX IMVI melanoma, with MDA-MB-231 breast, with NCI-H226 lung, in the assay with NCI-H460 lung and with RXF 393 renal was greater than 35 µM throughout. Moreover, the GI50 in the assay on U251 CNS and in the assay on UO-31 renal was greater than 35 µM each time. The TGI with ACHN renal, in the assay on LOX IMVI melanoma, in the assay with MDA-MB-231 breast, in the assay on NCI-H226 lung, in the assay on NCI-H460 lung and in the assay on RXF 393 renal was greater than 35 µM in each case. The TGI in the assay with U251 CNS and in the assay with UO-31 renal was greater than 35 µM each time.
For `CC(c1ccccc1)[C@@H](C(=O)Nc1ccc(I)cc1F)N1C(=O)N[C@H](c2ccc(OC[C@H](O)CO)cc2)C1=O` (stereo partly drawn), the GI50 in the assay with ACHN renal was 8.48 µM; in the assay with LOX IMVI melanoma, 2.5 µM; in the assay on MDA-MB-231 breast, 1.56 µM; in the assay with NCI-H226 lung it was 14.5 µM; in the assay on NCI-H460 lung, greater than 14.6 µM; in the assay on RXF 393 renal, 4.2 µM. The GI50 in the assay with U251 CNS was 7.86 µM; in the assay on UO-31 renal it was 9.91 µM. Also, the TGI is greater than 25 µM in the assay on ACHN renal; greater than 25 µM with LOX IMVI melanoma; greater than 25 µM with MDA-MB-231 breast; greater than 25 µM in the assay with NCI-H226 lung; greater than 25 µM with NCI-H460 lung; greater than 22.6 µM in the assay with RXF 393 renal. The TGI in the assay with U251 CNS and in the assay with UO-31 renal was greater than 25 µM in each case.
As to `NC1=NC(=O)/C(=C/c2ccc3ncccc3c2)S1`, the GI50 with ACHN renal, in the assay on LOX IMVI melanoma, in the assay on MDA-MB-231 breast, in the assay on NCI-H226 lung, in the assay with NCI-H460 lung and in the assay with RXF 393 renal was greater than 25 µM in each case. Moreover, the GI50 with U251 CNS and with UO-31 renal was greater than 25 µM in each case. For the same compound, the TGI with ACHN renal, in the assay on LOX IMVI melanoma, in the assay on MDA-MB-231 breast, in the assay with NCI-H226 lung, in the assay with NCI-H460 lung and in the assay with RXF 393 renal was greater than 25 µM throughout. The TGI with U251 CNS and in the assay on UO-31 renal was greater than 25 µM throughout.
Turning to `CCOC(=O)c1c(NC(=O)c2ccccc2)sc2c3c(ccc12)OCN(C)C3`, the GI50 was 1.58 µM in the assay with ACHN renal; 1.62 µM with LOX IMVI melanoma; 1.85 µM in the assay with MDA-MB-231 breast; 1.9 µM with NCI-H226 lung; 1.87 µM in the assay with NCI-H460 lung; 1.57 µM in the assay with RXF 393 renal. The GI50 was 1.68 µM in the assay with U251 CNS and 1.36 µM with UO-31 renal. In addition, the TGI came to 2.98 µM with ACHN renal; 3.03 µM in the assay with LOX IMVI melanoma; 3.52 µM in the assay with MDA-MB-231 breast; 4.14 µM in the assay on NCI-H226 lung; 3.53 µM in the assay on NCI-H460 lung; 3.2 µM in the assay on RXF 393 renal. In addition, the results for the TGI in the assay with U251 CNS and in the assay on UO-31 renal were 3.4 µM and 2.74 µM, respectively.
Turning to `COc1ccc2nc3cc([N+](=O)[O-])ccc3c(NNc3ccccc3)c2c1`, the GI50 with ACHN renal is 14.4 µM; with LOX IMVI melanoma, 14.5 µM; with MDA-MB-231 breast, 5.69 µM; in the assay with NCI-H226 lung, 1.63 µM; with RXF 393 renal it was 11.8 µM; with U251 CNS, 8.08 µM. The GI50 with UO-31 renal is 13.1 µM. In addition, the TGI was 33.1 µM and > 83.3 µM in the assay with ACHN renal; greater than 100 µM with LOX IMVI melanoma; 30 µM and 54.2 µM in the assay with MDA-MB-231 breast; 18.1 µM and 7.66 µM with NCI-H226 lung; 25.2 µM and 42.3 µM with NCI-H460 lung; 27.6 µM and > 100 µM in the assay with RXF 393 renal. Besides, the TGI with U251 CNS is 22 µM and > 100 µM; in the assay on UO-31 renal, 34.3 µM and > 100 µM.
With `O=c1ccc(=O)n(-c2ccccc2)[nH]1`, the TGI in the assay with ACHN renal, in the assay with LOX IMVI melanoma, in the assay with MDA-MB-231 breast, with NCI-H226 lung, in the assay with NCI-H460 lung and in the assay with RXF 393 renal was greater than 100 µM throughout. The TGI in the assay on U251 CNS and in the assay on UO-31 renal was greater than 100 µM throughout.
Consider `Clc1ccc(OCc2nnc3n2N=C(c2ccc(Br)cc2)CS3)cc1`, for which the TGI is greater than 100 µM in the assay on ACHN renal; 46 µM with LOX IMVI melanoma; 70.3 µM with LXFL 529 NSCLC; greater than 100 µM in the assay on NCI-H226 lung; 82 µM in the assay on NCI-H460 lung; 61.8 µM in the assay on RXF 393 renal. Besides, the figures for the TGI in the assay on U251 CNS and with UO-31 renal were greater than 100 µM and 19.6 µM, respectively.
On to `N#Cc1ccccc1C#C/C=C\C#CC#C/C=C\C#Cc1ccccc1C#N`, for which the GI50 with ACHN renal was 7.39 µM; with LOX IMVI melanoma, 17.3 µM; in the assay with MDA-MB-231 breast, 8.76 µM; in the assay with NCI-H226 lung, 29.7 µM; in the assay with NCI-H460 lung it was 41.3 µM; with RXF 393 renal, 15 µM. Further, the GI50 in the assay on U251 CNS was 12.4 µM; with UO-31 renal, 21.8 µM. In addition, the TGI with ACHN renal was 37.8 µM; in the assay with LOX IMVI melanoma, 45 µM; in the assay with MDA-MB-231 breast it was 35.4 µM; with NCI-H226 lung it was greater than 100 µM; in the assay with NCI-H460 lung, greater than 100 µM; in the assay with RXF 393 renal it was 68.2 µM. The TGI with U251 CNS is 47.1 µM; in the assay with UO-31 renal, greater than 100 µM.
`COc1ccc(C(=O)O[C@H]2[C@H](O[C@H]3[C@@H](O)COC(O[C@H]4C[C@H]5[C@@H]6CC=C7C[C@@H](O)CC[C@]7(C)[C@H]6CC[C@]5(C)[C@H]4[C@H](C)C(=O)CCC(C)C)[C@@H]3OC(C)=O)OC[C@@H](O)[C@@H]2O)c(C)c1` (stereo partly drawn): the GI50 was 0.0312 µM in the assay with ACHN renal; less than 0.01 µM with LOX IMVI melanoma; 0.146 µM in the assay with MDA-MB-231 breast; 0.0423 µM in the assay on NCI-H226 lung; less than 0.01 µM with NCI-H460 lung; less than 0.01 µM in the assay with RXF 393 renal. In addition, the GI50 in the assay with U251 CNS and in the assay on UO-31 renal was less than 0.01 µM throughout. Besides, the TGI with ACHN renal was 38.9 µM; with LOX IMVI melanoma, 0.0173 µM; in the assay with MDA-MB-231 breast it was 18.1 µM; in the assay with NCI-H226 lung, 30.6 µM; in the assay on NCI-H460 lung it was 3.23 µM; with RXF 393 renal it was less than 0.01 µM. Moreover, the TGI stood at 18.7 µM in the assay with U251 CNS and 0.0335 µM with UO-31 renal.
